Assay results: patent US4563472A, “Iodoallyl and iodopropargyl substituted tetrazoles and anti-microbial compositions thereof” (Meiji Seika Kaisha, Ltd., priority 1982, dated 1986)
In brackets after ≈: the same amount, converted by molar mass. Where two headings read alike, the source gives them in different places.

What was measured:
[1] = test system: Aspergillus fumigatus Saito; assay: Antifungal Activity (in Medicinal Field), MIC; format: cell-based; conditions: read-out: Minimal Inhibitory Conc. (MIC)
[2] = test system: Trichophyton metagrophytes 530324; assay: Antifungal Activity (in Medicinal Field), MIC; format: cell-based
[3] = test system: Candida alubicans GA-24; assay: Antifungal Activity (in Medicinal Field), MIC; format: cell-based
[4] = test system: Trichophyton interdigitale; assay: Antifungal Activity (in Medicinal Field), MIC; format: cell-based; conditions: read-out: Minimal Inhibitory Conc. (MIC)
[5] = test system: Cryptococcus neoformans Cr-1; assay: Antifungal Activity (in Medicinal Field), MIC; format: cell-based; conditions: CR1, read-out: Minimal Inhibitory Conc. (MIC)
[6] = test system: Trichophyton mentagrophytes; assay: Therapeutic experiment on trichophytosis in guinea pigs, visual observation; format: in vivo, guinea pigs (White Hartly-strain); conditions: 1% preparation, 0.25 ml once per day, 8 consecutive days
[7] = test system: Trichophyton mentagrophytes; assay: Reducing culture positive rate of skin slices from infected guinea pigs; format: in vivo, guinea pigs (White Hartly-strain); parameters: concentration or dose not given beside the values; conditions: after 8 days application, non-treated 100
[8] = test system: Aspergillus flavus ATCC 6275; assay: Antifungal Activity (in Industrial Field), MIC; format: cell-based; conditions: ATCC6275, read-out: Minimal Inhibitory Conc. (MIC)
[9] = test system: Aspergillus fumigatus IAM 2621; assay: Antifungal Activity (in Industrial Field), MIC; format: cell-based; conditions: IAM2621, read-out: Minimal Inhibitory Conc. (MIC)
[10] = test system: Cladosporium herbarum IAM F-517; assay: Antifungal Activity (in Industrial Field), MIC; format: cell-based; conditions: IAMF517, read-out: Minimal Inhibitory Conc. (MIC)
[11] = test system: Penicillium luteum ATCC 9644; assay: Antifungal Activity (in Industrial Field), MIC; format: cell-based; conditions: Ascospirella lutea, ATCC9644, read-out: Minimal Inhibitory Conc. (MIC)
[12] = test system: Mucor spinescens IAM Mu3; assay: Antifungal Activity (in Industrial Field), MIC; format: cell-based; conditions: IAMMU3, read-out: Minimal Inhibitory Conc. (MIC)
[13] = test system: Trichoderma T-1 ATCC 9645; assay: Antifungal Activity (in Industrial Field), MIC; format: cell-based; conditions: ATCC9645, read-out: Minimal Inhibitory Conc. (MIC)
[14] = test system: Pullularia pullulans IAM F-24; assay: Antifungal Activity (in Industrial Field), MIC; format: cell-based; conditions: IAMF24; Pullularia pullulans IAM F-24; read-out: Minimal Inhibitory Conc. (MIC)
[15] = test system: Chaetomium globosum ATCC 6205; assay: Antifungal Activity (in Industrial Field), MIC; format: cell-based; conditions: ATCC6205, read-out: Minimal Inhibitory Conc. (MIC)
[16] = test system: Aspergillus terreus PQMD 82 j; assay: Antifungal Activity (in Industrial Field), MIC; format: cell-based; conditions: PQMD82J, read-out: Minimal Inhibitory Conc. (MIC)
[17] = test system: Rhizopus nigricans S.N. 32; assay: Antifungal Activity (in Industrial Field), MIC; format: cell-based; conditions: Rhizopus stolonifer, read-out: Minimal Inhibitory Conc. (MIC)
[18] = test system: Cochliobolus miyabeanus; assay: Antibacterial and Antifungal Activities (in Agricultural Field), MIC; format: cell-based; conditions: Bipolaris oryzae, read-out: Minimal Inhibitory Conc. (MIC)
[19] = test system: Glomerella cingulata; assay: as above; format: cell-based; conditions: Colletotrichum gloeosporioides, read-out: Minimal Inhibitory Conc. (MIC)
[20] = test system: Colletotrichum lagenarium; assay: as above; format: cell-based; conditions: Colletotrichum orbiculare, read-out: Minimal Inhibitory Conc. (MIC)
[21] = test system: Fusarium oxysporum f. lycopersici; assay: as above; format: cell-based; conditions: read-out: Minimal Inhibitory Conc. (MIC)
[22] = test system: Alternaria kikuchiana; assay: as above; format: cell-based; conditions: read-out: Minimal Inhibitory Conc. (MIC)
[23] = test system: Botrytis cinerea; assay: as above; format: cell-based; conditions: read-out: Minimal Inhibitory Conc. (MIC)
[24] = test system: Pellicularia filamentosa; assay: as above; format: cell-based; conditions: read-out: Minimal Inhibitory Conc. (MIC)
[25] = test system: Xanthomonas campestris pv. oryzae; assay: microbe, parasite or virus in culture; format: cell-based; conditions: read-out: Minimal Inhibitory Conc. (MIC)
[26] = test system: Gibberella fujikuroi; assay: Antibacterial and Antifungal Activities (in Agricultural Field), MIC; format: cell-based; conditions: Fusarium fujikuroi, read-out: Minimal Inhibitory Conc. (MIC)
[27] = Trichophyton metagrophytes 530324, read-out: Minimal Inhibitory Conc. (MIC)
[28] = GA24, Candida alubicans GA-24, read-out: Minimal Inhibitory Conc. (MIC)
[29] = Trichophyton, 530324, read-out: Minimal Inhibitory Conc. (MIC)
[30] = Candida, GA24, read-out: Minimal Inhibitory Conc. (MIC)

| SMILES | MIC [1] | MIC [2, 27] | MIC [3, 28] | MIC [4] | MIC [5] | MIC [8] | MIC [9] | MIC [10] | MIC [11] | MIC [12] | MIC [13] | MIC [14] | MIC [15] | MIC [16] | MIC [17] | MIC [2, 29] | MIC [3, 30] | also measured |
| --- | --- | --- | --- | --- | --- | --- | --- | --- | --- | --- | --- | --- | --- | --- | --- | --- | --- | --- |
| Cc1nnnn1CC(I)=C(I)I [1-(2',3',3'-triiodoallyl)-5-methyltetrazole] | 0.78 µg/mL (≈ 1.55 µM) | 0.78 µg/mL (≈ 1.55 µM) | 3.12 µg/mL (≈ 6.22 µM) | 0.78 µg/mL (≈ 1.55 µM) | 6.25 µg/mL (≈ 12.5 µM) | – | – | – | – | – | – | – | – | – | – | – | – | – |
| Clc1ccccc1C(c1ccccc1)(c1ccccc1)n1ccnc1 [chlotrimazol, 1-(O-chloro-α,α-diphenylbenzyl)imidazole, reference compound] | – | – | – | – | – | – | – | – | – | – | – | – | – | – | – | – | – | Therapeutic Effect: Desquamation [6]: effective; Therapeutic Effect: Thickening [6]: effective; Reducing Culture Positive Rate ([7]; 3 days culture): 75%; Reducing Culture Positive Rate ([7]; 5 days culture): 96%; Reducing Culture Positive Rate ([7]; 7 days culture): 96% |
| IC(I)=C(I)Cn1nnc(-c2ccccc2)n1 [2-(2',3',3'-triiodoallyl)-5-phenyltetrazole] | 6.25 µg/mL (≈ 11.1 µM) | 1.56 µg/mL (≈ 2.77 µM) | 12.5 µg/mL (≈ 22.2 µM) | 3.12 µg/mL (≈ 5.53 µM) | 12.5 µg/mL (≈ 22.2 µM) | – | – | – | – | – | – | – | – | – | – | – | – | – |
| O=[N+]([O-])c1cc(Cl)n(CC#CI)c1 [1-(1'-iodopropyn-3'-yl)-2-chloro-4-nitropyrrole] | – | – | – | – | – | 0.39 µg/mL (≈ 1.26 µM) | 0.19 µg/mL (≈ 0.612 µM) | 1.56 µg/mL (≈ 5.02 µM) | 0.39 µg/mL (≈ 1.26 µM) | 0.78 µg/mL (≈ 2.51 µM) | 3.12 µg/mL (≈ 10 µM) | 1.56 µg/mL (≈ 5.02 µM) | 12.5 µg/mL (≈ 40.3 µM) | 0.19 µg/mL (≈ 0.612 µM) | – | – | – | – |
| IC#CCn1cccn1 [1-(1'-iodopropyn-3'-yl)pyrazole] | 0.78 µg/mL (≈ 3.36 µM) | – | – | 0.39 µg/mL (≈ 1.68 µM) | 0.78 µg/mL (≈ 3.36 µM) | 1.56 µg/mL (≈ 6.72 µM) | 1.56 µg/mL (≈ 6.72 µM) | 3.13 µg/mL (≈ 13.5 µM) | 0.78 µg/mL (≈ 3.36 µM) | 1.56 µg/mL (≈ 6.72 µM) | 3.13 µg/mL (≈ 13.5 µM) | 3.13 µg/mL (≈ 13.5 µM) | 12.5 µg/mL (≈ 53.9 µM) | 0.78 µg/mL (≈ 3.36 µM) | 1.56 µg/mL (≈ 6.72 µM) | 0.39 µg/mL (≈ 1.68 µM) | 3.12 µg/mL (≈ 13.4 µM) | – |
| IC#CCn1ncnn1 [2-(1'-iodopropyn-3'-yl)tetrazole] | 1.56 µg/mL (≈ 6.67 µM) | – | – | 1.56 µg/mL (≈ 6.67 µM) | 0.78 µg/mL (≈ 3.33 µM) | 6.25 µg/mL (≈ 26.7 µM) | 25 µg/mL (≈ 107 µM) | 3.13 µg/mL (≈ 13.4 µM) | 3.13 µg/mL (≈ 13.4 µM) | 3.13 µg/mL (≈ 13.4 µM) | 3.13 µg/mL (≈ 13.4 µM) | 6.25 µg/mL (≈ 26.7 µM) | 25 µg/mL (≈ 107 µM) | 0.78 µg/mL (≈ 3.33 µM) | 6.25 µg/mL (≈ 26.7 µM) | 1.56 µg/mL (≈ 6.67 µM) | 3.12 µg/mL (≈ 13.3 µM) | – |
| CC(=O)Nc1nnn(CC(I)=C(I)I)n1 [2-(2',3',3'-triiodoallyl)-5-acetylaminotetrazole] | 12.5 µg/mL (≈ 22.9 µM) | 3.12 µg/mL (≈ 5.73 µM) | 100 µg/mL (≈ 184 µM) | 3.12 µg/mL (≈ 5.73 µM) | 100 µg/mL (≈ 184 µM) | – | – | – | – | – | – | – | – | – | – | – | – | – |
| O=[N+]([O-])c1ccn(CC#CI)c1 [1-(1'-iodopropyn-3'-yl)-3-nitropyrrole] | 0.09 µg/mL (≈ 0.326 µM) | 0.19 µg/mL (≈ 0.688 µM) | 0.78 µg/mL (≈ 2.83 µM) | 0.78 µg/mL (≈ 2.83 µM) | 0.09 µg/mL (≈ 0.326 µM) | – | – | – | – | – | – | – | – | – | – | – | – | MIC [18]: 6.25 µg/mL (≈ 22.6 µM); MIC [19]: 0.78 µg/mL (≈ 2.83 µM); MIC [20]: 3.12 µg/mL (≈ 11.3 µM); MIC [21]: 3.12 µg/mL (≈ 11.3 µM); MIC [22]: 1.56 µg/mL (≈ 5.65 µM); MIC [23]: 0.78 µg/mL (≈ 2.83 µM); MIC [24]: 50 µg/mL (≈ 181 µM); MIC [25]: 0.39 µg/mL (≈ 1.41 µM); MIC [26]: 3.12 µg/mL (≈ 11.3 µM) |
| IC#CCn1cnnn1 [1-(1'-iodopropyn-3'-yl)tetrazole] | 0.39 µg/mL (≈ 1.67 µM) | – | – | 0.78 µg/mL (≈ 3.33 µM) | 0.39 µg/mL (≈ 1.67 µM) | 1.56 µg/mL (≈ 6.67 µM) | 12.5 µg/mL (≈ 53.4 µM) | 1.56 µg/mL (≈ 6.67 µM) | 1.56 µg/mL (≈ 6.67 µM) | 3.13 µg/mL (≈ 13.4 µM) | 0.78 µg/mL (≈ 3.33 µM) | 1.56 µg/mL (≈ 6.67 µM) | 3.13 µg/mL (≈ 13.4 µM) | 0.2 µg/mL (≈ 0.855 µM) | 3.13 µg/mL (≈ 13.4 µM) | 0.78 µg/mL (≈ 3.33 µM) | 1.56 µg/mL (≈ 6.67 µM) | – |
| O=[N+]([O-])c1c(Cl)cccc1-c1c[nH]cc1Cl [pyrrolnitrin, 3-chloro-4-(2'-nitro-3'-chlorophenyl)pyrrole, reference compound] | – | – | – | – | – | – | – | – | – | – | – | – | – | – | – | – | – | Therapeutic Effect: Thickening [6]: effective; Reducing Culture Positive Rate ([7]; 3 days culture): 62%; Reducing Culture Positive Rate ([7]; 5 days culture): 87%; Reducing Culture Positive Rate ([7]; 7 days culture): 87% |
| O=[N+]([O-])c1cn(CC#CI)c(Cl)c1Cl [1-(1'-iodopropyn-3'-yl)-2,3-dichloro-4-nitropyrrole] | 0.39 µg/mL (≈ 1.13 µM) | 0.09 µg/mL (≈ 0.261 µM) | 0.78 µg/mL (≈ 2.26 µM) | 0.39 µg/mL (≈ 1.13 µM) | 1.56 µg/mL (≈ 4.52 µM) | 0.39 µg/mL (≈ 1.13 µM) | < 0.09 µg/mL | 6.25 µg/mL (≈ 18.1 µM) | 0.78 µg/mL (≈ 2.26 µM) | 0.39 µg/mL (≈ 1.13 µM) | 3.12 µg/mL (≈ 9.05 µM) | 6.25 µg/mL (≈ 18.1 µM) | 1.56 µg/mL (≈ 4.52 µM) | 0.39 µg/mL (≈ 1.13 µM) | – | – | – | MIC [18]: 12.5 µg/mL (≈ 36.2 µM); MIC [19]: 0.19 µg/mL (≈ 0.551 µM); MIC [20]: 1.56 µg/mL (≈ 4.52 µM); MIC [21]: 3.12 µg/mL (≈ 9.05 µM); MIC [22]: 0.78 µg/mL (≈ 2.26 µM); MIC [23]: 0.39 µg/mL (≈ 1.13 µM); MIC [24]: > 50 µg/mL; MIC [25]: 0.39 µg/mL (≈ 1.13 µM); MIC [26]: 1.56 µg/mL (≈ 4.52 µM) |
| IC#CCn1cncn1 [1-(1'-iodopropyn-3'-yl)-1,2,4-triazole] | 0.78 µg/mL (≈ 3.35 µM) | – | – | 0.78 µg/mL (≈ 3.35 µM) | 0.78 µg/mL (≈ 3.35 µM) | 6.25 µg/mL (≈ 26.8 µM) | 50 µg/mL (≈ 215 µM) | 3.13 µg/mL (≈ 13.4 µM) | 3.13 µg/mL (≈ 13.4 µM) | 6.25 µg/mL (≈ 26.8 µM) | 3.13 µg/mL (≈ 13.4 µM) | 3.13 µg/mL (≈ 13.4 µM) | 25 µg/mL (≈ 107 µM) | 0.39 µg/mL (≈ 1.67 µM) | 3.13 µg/mL (≈ 13.4 µM) | 1.56 µg/mL (≈ 6.69 µM) | 3.12 µg/mL (≈ 13.4 µM) | – |
